ChEMBL document CHEMBL1201862, “PubChem BioAssay data set” (2004)
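Where inhibition never reached the appropriate level, the endpoint shown equals the highest concentration tested. Otherwise, values were interpolated linearly from a five-concentration, 48-hour dose response in 96-well plates. Abbreviation: GI50, concentration required for 50% inhibition of growth.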 Calls of active or inactive are those of the source. Cut-off read from the data, not from the text of the source: active = GI50 up to about 1.1 µM and inactive = higher.

Key:
Test in all cases: NCI-60 cell line screen, 48 h
786-0 = test system: 786-0
A498 = test system: A498
A549 = test system: A549
ACHN = test system: ACHN
CAKI-1 = test system: CAKI-1
CCRF-CEM = test system: CCRF-CEM
COLO 205 = test system: COLO 205
DU-145 = test system: DU-145
EKVX = test system: EKVX
HCC 2998 = test system: HCC 2998
HCT-116 = test system: HCT-116
HCT-15 = test system: HCT-15
HL-60 = test system: HL-60
HOP-62 = test system: HOP-62
HOP-92 = test system: HOP-92
HT-29 = test system: HT-29
Hs-578T = test system: Hs-578T
IGROV-1 = test system: IGROV-1
K562 = test system: K562
KM12 = test system: KM12
LOX IMVI = test system: LOX IMVI
MDA-MB-231 = test system: MDA-MB-231
MDA-MB-435 = test system: MDA-MB-435
MOLT-4 = test system: MOLT-4
Malme-3M = test system: Malme-3M
NCI-H226 = test system: NCI-H226
NCI-H23 = test system: NCI-H23
NCI-H460 = test system: NCI-H460
NCI-H522 = test system: NCI-H522
NCI/ADR-RES = test system: NCI/ADR-RES
OVCAR-4 = test system: OVCAR-4
OVCAR-5 = test system: OVCAR-5
OVCAR-8 = test system: OVCAR-8
PC-3 = test system: PC-3
RPMI-8226 = test system: RPMI-8226
RXF 393 = test system: RXF 393
SF-268 = test system: SF-268
SF-295 = test system: SF-295
SF-539 = test system: SF-539
SK-MEL-28 = test system: SK-MEL-28
SK-MEL-2 = test system: SK-MEL-2
SK-MEL-5 = test system: SK-MEL-5
SK-OV-3 = test system: SK-OV-3
SN12C = test system: SN12C
SNB-19 = test system: SNB-19
SNB-75 = test system: SNB-75
SR = test system: SR
SW-620 = test system: SW-620
T47D = test system: T47D
TK-10 = test system: TK-10
U-251 = test system: U-251
UACC-257 = test system: UACC-257
UACC-62 = test system: UACC-62
UO-31 = test system: UO-31
M14 = test system: M14
MCF7 = test system: MCF7
MDA-N = test system: MDA-N

SMILES: c1ccc(/N=c2/[nH]c3ccccc3s/c2=N/c2ccccc2)cc1
- GI50 (786-0): > 100 µM (inactive)
- GI50 (A498): > 100 µM (inactive)
- GI50 (A549): > 100 µM (inactive)
- GI50 (ACHN): > 100 µM (inactive)
- GI50 (CAKI-1): > 100 µM (inactive)
- GI50 (CCRF-CEM): > 100 µM (inactive)
- GI50 (COLO 205): > 100 µM (inactive)
- GI50 (DU-145): > 100 µM (inactive)
- GI50 (EKVX): > 100 µM (inactive)
- GI50 (HCC 2998): 42.7 µM (inactive)
- GI50 (HCT-116): > 100 µM (inactive)
- GI50 (HCT-15): > 100 µM
- GI50 (HL-60): > 100 µM (inactive)
- GI50 (HOP-62): > 100 µM (inactive)
- GI50 (HOP-92): > 100 µM (inactive)
- GI50 (HT-29): 82 µM (inactive)
- GI50 (Hs-578T): > 100 µM (inactive)
- GI50 (IGROV-1): > 100 µM (inactive)
- GI50 (K562): > 100 µM (inactive)
- GI50 (KM12): 73.8 µM (inactive)
- GI50 (LOX IMVI): > 100 µM (inactive)
- GI50 (MDA-MB-231): > 100 µM (inactive)
- GI50 (MDA-MB-435): > 100 µM (inactive)
- GI50 (MOLT-4): > 100 µM (inactive)
- GI50 (Malme-3M): > 100 µM (inactive)
- GI50 (NCI-H226): > 100 µM (inactive)
- GI50 (NCI-H23): > 100 µM (inactive)
- GI50 (NCI-H460): 28.1 µM (inactive)
- GI50 (NCI-H522): 26.3 µM (inactive)
- GI50 (NCI/ADR-RES): > 100 µM (inactive)
- GI50 (OVCAR-4): > 100 µM (inactive)
- GI50 (OVCAR-5): > 100 µM (inactive)
- GI50 (OVCAR-8): > 100 µM (inactive)
- GI50 (PC-3): > 100 µM (inactive)
- GI50 (RPMI-8226): > 100 µM (inactive)
- GI50 (RXF 393): 48.4 µM (inactive)
- GI50 (SF-268): > 100 µM (inactive)
- GI50 (SF-295): > 100 µM (inactive)
- GI50 (SF-539): > 100 µM (inactive)
- GI50 (SK-MEL-28): > 100 µM (inactive)
- GI50 (SK-MEL-2): 77.1 µM (inactive)
- GI50 (SK-MEL-5): > 100 µM (inactive)
- GI50 (SK-OV-3): > 100 µM (inactive)
- GI50 (SN12C): > 100 µM (inactive)
- GI50 (SNB-19): > 100 µM (inactive)
- GI50 (SNB-75): > 100 µM (inactive)
- GI50 (SR): > 100 µM (inactive)
- GI50 (SW-620): > 100 µM (inactive)
- GI50 (T47D): 93.8 µM (inactive)
- GI50 (TK-10): > 100 µM (inactive)
- GI50 (U-251): > 100 µM (inactive)
- GI50 (UACC-257): > 100 µM (inactive)
- GI50 (UACC-62): > 100 µM (inactive)
- GI50 (UO-31): > 100 µM (inactive)

SMILES: CN1CCN(c2cc3nsnc3c3nsnc23)CC1
- GI50 (786-0): > 10 µM (inactive)
- GI50 (A549): > 10 µM (inactive)
- GI50 (CAKI-1): > 10 µM (inactive)
- GI50 (CCRF-CEM): > 10 µM (inactive)
- GI50 (COLO 205): > 10 µM (inactive)
- GI50 (DU-145): > 10 µM (inactive)
- GI50 (EKVX): > 10 µM (inactive)
- GI50 (HCC 2998): > 10 µM (inactive)
- GI50 (HCT-15): > 10 µM
- GI50 (HL-60): > 10 µM (inactive)
- GI50 (HOP-62): > 10 µM (inactive)
- GI50 (HT-29): > 10 µM (inactive)
- GI50 (IGROV-1): > 10 µM (inactive)
- GI50 (K562): > 10 µM (inactive)
- GI50 (KM12): > 10 µM (inactive)
- GI50 (LOX IMVI): > 10 µM (inactive)
- GI50 (M14): > 10 µM (inactive)
- GI50 (MCF7): > 10 µM (inactive)
- GI50 (MDA-MB-231): > 10 µM (inactive)
- GI50 (MDA-N): > 10 µM (inactive)
- GI50 (MOLT-4): > 10 µM (inactive)
- GI50 (Malme-3M): > 10 µM (inactive)
- GI50 (NCI-H23): > 10 µM (inactive)
- GI50 (OVCAR-8): > 10 µM (inactive)
- GI50 (PC-3): > 10 µM (inactive)
- GI50 (RPMI-8226): > 10 µM (inactive)
- GI50 (RXF 393): > 10 µM (inactive)
- GI50 (SF-268): > 10 µM (inactive)
- GI50 (SF-295): > 10 µM (inactive)
- GI50 (SK-MEL-28): > 10 µM (inactive)
- GI50 (SK-MEL-5): > 10 µM (inactive)
- GI50 (SK-OV-3): > 10 µM (inactive)
- GI50 (SN12C): > 10 µM (inactive)
- GI50 (SNB-75): > 10 µM (inactive)
- GI50 (SR): > 10 µM (inactive)
- GI50 (SW-620): > 10 µM (inactive)
- GI50 (T47D): > 10 µM (inactive)
- GI50 (TK-10): > 10 µM (inactive)
- GI50 (UACC-257): > 10 µM (inactive)
- GI50 (UACC-62): > 10 µM (inactive)
